This test deals with T1, full-length human PKCι (Homo sapiens, UniProt P41743).
T1 construct: Recombinant, full-length human PKCι expressed in Sf21 insect cells is also commercially available; purchased; host or cells: Sf21 insect cells
T1 sequence (P41743 1-596): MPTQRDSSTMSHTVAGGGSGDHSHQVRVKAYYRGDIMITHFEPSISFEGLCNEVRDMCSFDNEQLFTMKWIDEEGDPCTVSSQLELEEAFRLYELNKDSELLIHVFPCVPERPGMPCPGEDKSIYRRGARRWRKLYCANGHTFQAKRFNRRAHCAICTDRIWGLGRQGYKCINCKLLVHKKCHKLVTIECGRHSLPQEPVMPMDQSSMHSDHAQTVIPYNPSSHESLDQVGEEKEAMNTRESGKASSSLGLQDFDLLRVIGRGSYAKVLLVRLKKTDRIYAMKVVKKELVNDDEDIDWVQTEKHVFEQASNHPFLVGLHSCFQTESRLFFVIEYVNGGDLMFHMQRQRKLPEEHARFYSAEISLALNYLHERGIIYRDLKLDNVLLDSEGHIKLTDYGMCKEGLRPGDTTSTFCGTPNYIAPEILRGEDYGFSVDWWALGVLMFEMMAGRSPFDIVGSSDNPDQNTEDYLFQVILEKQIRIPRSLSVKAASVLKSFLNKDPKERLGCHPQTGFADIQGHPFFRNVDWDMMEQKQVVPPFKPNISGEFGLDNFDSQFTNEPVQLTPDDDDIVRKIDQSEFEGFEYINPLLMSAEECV
Kind of test: PKCι IC50 IMAP assay, full-length PKCι at 150 μM ATP. Format: biochemical. Conditions: read-out: IC50 in IMAP assay against full length PKCi at 150 μM ATP. The procedure, abridged: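 Phosphorylation of a 5FAM-tagged PKCε pseudopeptide-derived substrate (100 nM) by full-length recombinant human PKCι was monitored by IMAP fluorescence polarisation. ATP was held at 150 μM, five times its apparent KM, with 60 min room-temperature incubation.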

These results are taken from patent US9914730B2, “Azaquinazoline inhibitors of Atypical protein Kinase C” (Ignyta, Inc., priority 2012, dated 2018).

SMILES strings stand for the structures.

Take `CN1CCN(c2cccc(Nc3cc(-c4nc(N5CC[C@H](O)[C@H](O)C5)c5c(C6CC6)cncc5n4)ccn3)c2)CC1` (racemic) [Example 602, (+/−)-(cis)-1-(5-Cyclopropyl-2-{2-[3-(4-methyl-piperazin-1-yl)-phenylamino]-pyridin-4-yl}-pyrido[3,4-d]pyrimidin-4-yl)-piperidine-3,4-diol]: the half-inhibitory concentration (IC50) is under 100 nM.
With `COc1cncc2nc(-c3ccnc(NC(=O)Cc4cccc(C#N)c4)c3)nc(N3CCNCC3)c12` [Example 356, 2-(3-Cyano-phenyl)-N-[4-(5-methoxy-4-piperazin-1-yl-pyrido[3,4-d]pyrimidin-2-yl)-pyridin-2-yl]-acetamide], the IC50 is under 100 nM.
In the case of `COCc1ccccc1Nc1cc(-c2nc(N3CCNCC3)c3c(C4CC4)cncc3n2)ccn1` [Example 517, [4-(5-Cyclopropyl-4-piperazin-1-yl-pyrido[3,4-d]pyrimidin-2-yl)-pyridin-2-yl]-(2-methoxymethyl-phenyl)-amine], the IC50 was 100 to 1000 nM.
For the compound `CC(C)n1ccc(Nc2cc(-c3nc(N4CCNCC4)c4c(C5CC5)cncc4n3)ccn2)n1` [Example 779, [4-(5-Cyclopropyl-4-piperazin-1-yl-pyrido[3,4-d]pyrimidin-2-yl)-pyridin-2-yl]-(1-isopropyl-1H-pyrazol-3-yl)-amine], the IC50 was under 100 nM.
Then `C[C@H]1CN(c2nc(-c3ccnc(NC4CCN(CC(F)(F)F)CC4)c3)nc3cncc(C4CC4)c23)CCN1` [Example 2049, {4-[5-Cyclopropyl-4-((S)-3-methyl-piperazin-1-yl)-pyrido[3,4-d]pyrimidin-2-yl]-pyridin-2-yl}-[1-(2,2,2-trifluoro-ethyl)-piperidin-4-yl]-amine], with under 100 nM; and `Fc1cccc(Cl)c1Nc1cc(-c2nc(N3CCNCC3)c3c(C4CC4)cncc3n2)ccn1` [Example 616, (2-Chloro-6-fluoro-phenyl)-[4-(5-cyclopropyl-4-piperazin-1-yl-pyrido[3,4-d]pyrimidin-2-yl)-pyridin-2-yl]-amine], with under 100 nM.
As to `Cc1ccc(Nc2cc(-c3nc(N4CCNCC4)c4c(C5CC5)cncc4n3)ccn2)cn1` [Example 546, [4-(5-Cyclopropyl-4-piperazin-1-yl-pyrido[3,4-d]pyrimidin-2-yl)-pyridin-2-yl]-(6-methyl-pyridin-3-yl)-amine], the half-maximal inhibitory concentration (IC50) was under 100 nM.
Under `FC(F)(F)C1CN(c2nc(-c3ccnc(Cl)c3)nc3cncc(C4CC4)c23)CCN1` (stereo not shown) [Example 624, 2-(2-Chloro-pyridin-4-yl)-5-cyclopropyl-4-(3-trifluoromethyl-piperazin-1-yl)-pyrido[3,4-d]pyrimidine] stands 100 to 1000 nM; under `COc1cncc2nc(-c3ccnc(Nc4cnn(-c5ccccc5)c4)c3)nc(N3CCNCC3)c12` [Example 489, 4-(5-Methoxy-4-piperazin-1-yl-pyrido[3,4-d]pyrimidin-2-yl)-N-(1-phenylpyrazol-4-yl)pyridin-2-amine], under 100 nM; under `NC(=O)c1cccc(Nc2cc(-c3nc(N[C@@H]4CCNC4)c4ccncc4n3)ccn2)c1` [Example 308, 3-{4-[4-((R)-Pyrrolidin-3-ylamino)-pyrido[3,4-d]pyrimidin-2-yl]-pyridin-2-ylamino}-benzamide], 100 to 1000 nM.
Take `COc1cncc2nc(-c3ccnc4[nH]c(Cc5ccccc5F)cc34)nc(N3CCNCC3)c12` [Example 1203, 2-[2-(2-Fluoro-benzyl)-1H-pyrrolo[2,3-b]pyridin-4-yl]-5-methoxy-4-piperazin-1-yl-pyrido[3,4-d]pyrimidine]: the concentration for half-maximal inhibition (IC50) is under 100 nM.
Then `Fc1ccccc1C1(c2cc3c(-c4nc(N5CCNCC5)c5c(C6CC6)cncc5n4)ccnc3[nH]2)CC1` [Example 2009, 5-Cyclopropyl-2-{2-[1-(2-fluoro-phenyl)-cyclopropyl]-1H-pyrrolo[2,3-b]pyridin-4-yl}-4-piperazin-1-yl-pyrido[3,4-d]pyrimidine], with under 100 nM; and `Fc1cccc(Nc2cc(-c3nc(N4CCNCC4)c4c(C5CC5)cncc4n3)ccn2)n1` [Example 483, [4-(5-Cyclopropyl-4-piperazin-1-yl-pyrido[3,4-d]pyrimidin-2-yl)-pyridin-2-yl]-(6-fluoro-pyridin-2-yl)-amine], with under 100 nM; and `COc1ccc(F)c(Nc2cc(-c3nc(N4CCNCC4)c4c(C5CC5)cncc4n3)ccn2)c1` [Example 580, [4-(5-Cyclopropyl-4-piperazin-1-yl-pyrido[3,4-d]pyrimidin-2-yl)-pyridin-2-yl]-(2-fluoro-5-methoxy-phenyl)-amine], with under 100 nM.
On to `Cc1ccc(Cl)c(Nc2cc(-c3nc(N4CCNCC4)c4c(C5CC5)cncc4n3)ccn2)c1` [Example 577, (2-Chloro-5-methyl-phenyl)-[4-(5-cyclopropyl-4-piperazin-1-yl-pyrido[3,4-d]pyrimidin-2-yl)-pyridin-2-yl]-Amine], for which the IC50 is under 100 nM.
For `Fc1cc(F)c(F)c(Nc2cc(-c3nc(N4CCNCC4)c4c(C5CC5)cncc4n3)ccn2)n1` [Example 774, [4-(5-Cyclopropyl-4-piperazin-1-yl-pyrido[3,4-d]pyrimidin-2-yl)-pyridin-2-yl]-(3,4,6-trifluoro-pyridin-2-yl)-amine], the half-inhibitory concentration (IC50) was under 100 nM.
Then `Clc1ncc(C2CC2)c2c(N3CCNCC3)nc(-c3ccnc4[nH]ccc34)nc12` [Example 1210, 8-Chloro-5-cyclopropyl-4-piperazin-1-yl-2-(1H-pyrrolo[2,3-b]pyridin-4-yl)-pyrido[3,4-d]pyrimidine], with under 100 nM; and `FC(F)(F)c1cc2c(-c3nc(N4CCNCC4)c4c(C5CC5)cnc(Cl)c4n3)ccnc2[nH]1` [Example 2071, 8-Chloro-5-cyclopropyl-4-piperazin-1-yl-2-(2-trifluoromethyl-1H-pyrrolo[2,3-b]pyridin-4-yl)-pyrido[3,4-d]pyrimidine], with under 100 nM; and `Fc1cc(C2CC2)c(F)nc1Nc1cc(-c2nc(N3CCNCC3)c3c(C4CC4)cncc3n2)ccn1` [Example 2047, (5-Cyclopropyl-3,6-difluoro-pyridin-2-yl)-[4-(5-cyclopropyl-4-piperazin-1-yl-pyrido[3,4-d]pyrimidin-2-yl)-pyridin-2-yl]-amine], with under 100 nM.
Then `Fc1cccc(F)c1Nc1cc(-c2nc(N3CCNC4(CC4)C3)c3c(C4CC4)cncc3n2)ccn1` [Example 829, {4-[5-Cyclopropyl-4-(4,7-diaza-spiro[2.5]oct-7-yl)-pyrido[3,4-d]pyrimidin-2-yl]-pyridin-2-yl}-(2,6-difluoro-phenyl)-amine], with under 100 nM; and `c1cc(-c2nc(N3CCN4CCC[C@@H]4C3)c3ccncc3n2)ccn1` [Example 64, 4-{4-[(8aR)-octahydropyrrolo-[1,2-a]piperazin-2-yl]pyrido[3,4-d]-pyrimidin-2-yl}-pyridine], with 10000 to 40000 nM.
For the compound `COc1cc(N2CCOCC2)ccc1Nc1cc(-c2nc(N[C@@H]3CCNC3)c3ccncc3n2)ccn1` [Example 358, {2-[2-(2-Methoxy-4-morpholin-4-yl-phenylamino)-pyridin-4-yl]-pyrido[3,4-d]pyrimidin-4-yl}-(R)-pyrrolidin-3-yl-amine], the IC50 fell in the range of 100 to 1000 nM.
With `COc1cncc2nc(-c3ccnc(Nc4cccc(N5CCNCC5)c4)c3)ncc12` [Example 503, [4-(5-Methoxy-pyrido[3,4-d]pyrimidin-2-yl)-pyridin-2-yl]-(3-piperazin-1-yl-phenyl)-amine], the IC50 fell in the range of 1000 to 10000 nM.
Then `C[C@@H]1CN(c2nc(-c3ccnc(NC4CCN(CC(F)(F)F)CC4)c3)nc3cncc(C4CC4)c23)C[C@H](C)N1` [Example 2073, {4-[5-Cyclopropyl-4-((cis)-3,5-dimethyl-piperazin-1-yl)-pyrido[3,4-d]pyrimidin-2-yl]-pyridin-2-yl}-[1-(2,2,2-trifluoro-ethyl)-piperidin-4-yl]-amine], with under 100 nM; and `c1cc(-c2nc(N3CCNCC3)c3c(C4CC4)cncc3n2)cc(Nc2nc3ccc(C4CC4)cn3n2)n1` [Example 2012, [4-(5-Cyclopropyl-4-piperazin-1-yl-pyrido[3,4-d]pyrimidin-2-yl)-pyridin-2-yl]-(6-cyclopropyl-[1,2,4]triazolo[1,5-a]pyridin-2-yl)-amine], with under 100 nM; and `COc1cncc2nc(-c3ccnc(NC(=O)Cc4cccnc4)c3)nc(N3CCNCC3)c12` [Example 399, N-[4-(5-Methoxy-4-piperazin-1-yl-pyrido[3,4-d]pyrimidin-2-yl)-pyridin-2-yl]-2-pyridin-3-yl-acetamide], with under 100 nM.
On to `Fc1cccc(F)c1-c1cc2c(-c3nc(N4CCNCC4)c4c(C5CC5)cncc4n3)ccnc2[nH]1` [Example 2145, 5-Cyclopropyl-2-[2-(2,6-difluoro-phenyl)-1H-pyrroIo[2,3-b]pyridin-4-yl]-4-piperazin-1-yl-pyrido[3,4-d]pyrimidine], for which the half-maximal inhibitory concentration (IC50) is under 100 nM.
Then `COc1cc(Nc2cc(-c3nc(N4CCNCC4)c4c(C5CC5)cncc4n3)ccn2)ccc1C1CC1` [Example 637, (4-Cyclopropyl-3-methoxy-phenyl)-[4-(5-cyclopropyl-4-piperazin-1-yl-pyrido[3,4-d]pyrimidin-2-yl)-pyridin-2-yl]-amine], with under 100 nM.

Broadly, the IC50 is the concentration at which inhibition is half-maximal.
